Assays:
A2780 CisR = assay: 72-h MTT proliferation assay, A2780 CisR; format: cell-based; conditions: Homo sapiens, A2780cisR, read-out: IC50 Cell line A2780 CisR
From the text: (§1) Selected compounds from the above examples were subjected to a standard cellular proliferation assay using seven different human tumour cell lines: A2780, A278CisF, CH1, CH1DoxR, HCT116, HT29 and KM12. […] Human tumour cell lines were obtained from the ATCC (American Type Culture Collection, 10801 University Boulevard, Manessas, Va. 20110-2209, USA). The results are shown in Table 1, together with the average IC50 over the seven different cell lines.

KM12 = assay: 72-h MTT proliferation assay, KM12; format: cell-based; conditions: Homo sapiens, read-out: IC50 Cell line KM12
From the text: as §1

CH1DoxR = assay: 72-h MTT proliferation assay, CH1DoxR; format: cell-based; conditions: Homo sapiens, read-out: IC50 Cell line CH1DoxR
From the text: as §1

A2780 = assay: 72-h MTT proliferation assay, A2780; format: cell-based; conditions: Homo sapiens, read-out: IC50 Cell line A2780
From the text: as §1

HT29 = assay: 72-h MTT proliferation assay, HT29; format: cell-based; conditions: Homo sapiens, HT-29, read-out: IC50 Cell line HT29
From the text: as §1

Aqueous solubility = format: physicochemical; conditions: remark in Table 1; versus Roscovitine
From the text: […]. […] […]

CH1 = assay: 72-h MTT proliferation assay, CH1; format: cell-based; conditions: Homo sapiens, read-out: IC50 Cell line CH1
From the text: as §1

[1] = tested on: seven different human tumour cell lines: A2780, A278CisF, CH1, CH1DoxR, HCT116, HT29 and KM12; assay: 72-h MTT proliferation assay, average over seven cell lines; format: cell-based; conditions: read-out: IC50 Cell line Average
From the text: Selected compounds from the above examples were subjected to a standard cellular proliferation assay using seven different human tumour cell lines: A2780, A278CisF, CH1, CH1DoxR, HCT116, HT29 and KM12.

A549, HT29, Saos-2 = assay: In vitro anti-proliferative activity, 72-h MTT, A549, HT29, Saos-2; format: cell-based; conditions: read-out: In vitro anti-proliferative activity (72-h MTT IC50), Cell lines: A549, HT29, Saos-2
[2] = biological target: T1, cyclic AMP-dependent kinase (PKA) catalytic subunit (Homo sapiens, UniProt P17612); assay: PKA kinase assay (Kemptide phosphorylation); format: biochemical; conditions: Table 2; read-out: Kinase inhibition PKA IC50
T1 construct: purchased Calbiochem 539487
Procedure: The reaction mixture (total volume 50 μl) consisted of 20 mM MOPS, pH 7.2, 25 mM β-glycerophosphate, 5 mM EGTA, 1 mM DTT, 1 mM Na3VO4, 10 mM MgCl2, 100 μM ATP, 0.2 μCi [γ-^32P]-ATP.

HCT116 = assay: 72-h MTT proliferation assay, HCT116; format: cell-based; conditions: Homo sapiens, HCT-116, read-out: IC50 Cell line HCT116
From the text: as §1

mouse ERK-2 = biological target: T2, mouse ERK-2 (Mus musculus, UniProt P63085); assay: ERK-2 kinase assay (MBP phosphorylation); format: biochemical; conditions: Table 2; read-out: Kinase inhibition ERK2 IC50
T2 construct: purchased Upstate Biotechnologies
T2 sequence (P63085 whole entry): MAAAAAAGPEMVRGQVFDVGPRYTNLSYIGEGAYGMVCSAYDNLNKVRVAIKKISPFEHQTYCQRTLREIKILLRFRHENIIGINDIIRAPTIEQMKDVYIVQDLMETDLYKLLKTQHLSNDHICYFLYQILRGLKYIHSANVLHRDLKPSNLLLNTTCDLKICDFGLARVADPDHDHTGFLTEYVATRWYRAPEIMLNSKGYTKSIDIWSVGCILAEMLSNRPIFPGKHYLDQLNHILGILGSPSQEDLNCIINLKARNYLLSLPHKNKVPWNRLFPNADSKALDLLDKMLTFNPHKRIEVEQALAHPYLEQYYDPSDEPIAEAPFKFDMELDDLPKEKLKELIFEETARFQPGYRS
Procedure: ERK-2 kinase activity was measured by the incorporation of radioactive phosphate into myelin basic protein (MBP), catalysed by purified mouse ERK-2 (Upstate Biotechnologies). The reaction mixture (total volume 50 μL) consisted of 20 mM MOPS, pH 7.0,25 mM β-glycerophosphate, 5 mM EGTA, 1 mM DTT, 1 mM Na3VO4, 10 mM MgCl2, 100 μM ATP, 0.2 μCi [γ-^32P]-ATP.

CDK7/cyclin H = CDK7/cyclin H (Homo sapiens, UniProt P50613); assay: CDK7/cyclin H kinase inhibition; format: biochemical; conditions: Table 2
Sequence of CDK7/cyclin H (P50613 whole entry, species assumed): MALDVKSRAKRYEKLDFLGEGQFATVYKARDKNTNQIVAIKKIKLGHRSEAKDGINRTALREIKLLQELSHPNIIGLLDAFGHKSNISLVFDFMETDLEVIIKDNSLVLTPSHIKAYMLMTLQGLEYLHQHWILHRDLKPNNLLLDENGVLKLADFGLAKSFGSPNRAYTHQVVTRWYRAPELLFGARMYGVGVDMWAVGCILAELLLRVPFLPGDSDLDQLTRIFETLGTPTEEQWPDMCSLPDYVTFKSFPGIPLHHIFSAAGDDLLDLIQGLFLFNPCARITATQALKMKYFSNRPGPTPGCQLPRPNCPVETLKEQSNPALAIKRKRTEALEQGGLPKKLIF
Sequence of CDK7/cyclin H (P51946 whole entry partner, species assumed): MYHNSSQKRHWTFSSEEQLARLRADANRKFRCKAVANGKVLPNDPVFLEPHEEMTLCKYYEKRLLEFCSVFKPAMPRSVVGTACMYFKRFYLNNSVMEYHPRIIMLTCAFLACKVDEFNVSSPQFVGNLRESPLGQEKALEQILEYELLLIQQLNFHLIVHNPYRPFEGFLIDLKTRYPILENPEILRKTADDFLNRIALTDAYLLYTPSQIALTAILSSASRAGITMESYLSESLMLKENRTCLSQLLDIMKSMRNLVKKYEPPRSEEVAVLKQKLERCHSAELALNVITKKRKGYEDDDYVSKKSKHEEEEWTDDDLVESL

CDK4/cyclin D1 = CDK4/cyclin D1 (Homo sapiens, UniProt P11802); assay: CDK4/cyclin D1 kinase assay (GST-Rb phosphorylation); format: biochemical; conditions: Table 2; read-out: Kinase inhibition CDK4/cyclin D1 IC50
Sequence of CDK4/cyclin D1 (P11802 whole entry, species assumed): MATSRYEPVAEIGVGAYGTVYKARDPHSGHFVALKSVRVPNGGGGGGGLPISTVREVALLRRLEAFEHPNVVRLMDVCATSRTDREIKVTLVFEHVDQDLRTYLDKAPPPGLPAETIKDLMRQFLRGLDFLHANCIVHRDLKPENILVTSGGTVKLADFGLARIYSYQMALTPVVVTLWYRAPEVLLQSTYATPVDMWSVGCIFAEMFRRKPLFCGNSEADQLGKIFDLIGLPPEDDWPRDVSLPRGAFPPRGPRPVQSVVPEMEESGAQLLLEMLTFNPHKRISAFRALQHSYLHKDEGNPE
Sequence of CDK4/cyclin D1 (P24385 whole entry partner, species assumed): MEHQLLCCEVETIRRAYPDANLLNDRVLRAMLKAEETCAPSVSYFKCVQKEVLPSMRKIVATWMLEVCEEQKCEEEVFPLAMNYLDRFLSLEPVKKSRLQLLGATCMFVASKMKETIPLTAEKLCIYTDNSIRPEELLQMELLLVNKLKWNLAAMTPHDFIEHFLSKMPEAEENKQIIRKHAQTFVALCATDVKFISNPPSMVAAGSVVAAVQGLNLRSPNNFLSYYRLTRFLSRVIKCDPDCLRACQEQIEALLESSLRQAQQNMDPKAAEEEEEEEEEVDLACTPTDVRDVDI
Procedure: Assays for CDK2/cyclin E kinase, CDK1/cyclin B and CDK4/cyclin D1 may be carried out by monitoring phosphorylation of GST-Rb in an appropriate system. […] The phosphorylation reaction mixture (total volume 40 μl) consisted of 50 mM HEPES pH 7.4, 20 mM MgCl2, 5 mM EGTA, 2 mM DTT, 20 mM β-glycerophosphate, 2 mM NaF, 1 mM Na3VO4, Protease Inhibitors Cocktail (Sigma, see above), BSA 0.5 mg/ml, 1 μg purified enzyme complex, 10 μl of GST-Rb-Sepharose-beads, 100 μM ATP, 0.2 μCi ^32P-ATP. The reaction is carried out for 30 min at 30° C. at constant shaking. At the end of this period 100 μl of 50 mM HEPES, pH 7.4 and 1 mM ATP is added to each well and the total volume transferred onto GFC filtered plate. The plate is washed 5 times with 200 μl of 50 mM HEPES, pH 7.4 and 1 mM ATP. To each well was added 50 μl scintillant liquid and the radioactivity of the samples is measured on Scintilation counter (Topcount, HP). The IC50 values of different peptides were calculated using GraFit software.

[3] = Pharmacokinetic analysis in mice

Row | IC50 (A2780 CisR) [µM] | IC50 (A2780) [µM] | IC50 (HT29) [µM] | PK remark: aqueous solubility (Aqueous solubility) | melting point [°C] | IC50 [1] [µM] | IC50 (A549, HT29, Saos-2) [µM] | IC50 [2] [µM] | IC50 (HCT116) [µM] | IC50 (mouse ERK-2) [µM] | IC50 (CDK7/cyclin H) [µM] | IC50 (CDK4/cyclin D1) [µM] | Structure (SMILES) | IC50 (KM12) [µM] | IC50 (CH1DoxR) [µM] | IC50 (CH1) [µM] | AUC ([3]; mice, comparative value) [nh-h/mL] | half-life ([3]; mouse, in vivo) [h]
1 | 28 | 22 | 54 | Improved aqueous solubility | 30 to 35 | 31 | 4.5 | > 50 | 26 | 9.5 | – | – | CC[C@H](CO)Nc1nc(NCc2ccccn2)c2ncn(C(C)C)c2n1 [Example 5, (R)-2-{9-Isopropyl-6-[(pyridin-2:ylmethyl)-amino]-9H-purin-2:ylamino}-butan-1-ol] | 38 | 23 | 26 | – | –
2 | 22 | 23 | 23 | Improved aqueous solubility | 105 to 106 | 17.3 | 17 | > 50 | 10 | – | 0.74 | 30 | CC[C@H](CO)Nc1nc(NCc2ccncc2)c2ncn(C(C)C)c2n1 [Example 6, (R)-2-{9-Isopropyl-6-[(pyridin-4-ylmethyl)-amino]-9H-purin-2-ylamino}-butan-1-ol] | 7 | 28 | 8.2 | – | –
3 | – | – | – | – | – | – | – | – | – | – | – | – | CC[C@H](CO)Nc1nc(NCc2ccccc2)c2ncn(C(C)C)c2n1 [Roscovitine] | – | – | – | 75454 | 2.7
